Like-named read-outs stand apart in the source and are kept apart here.
Experiments:
Assay type in all cases: cell-based
HS 578T = assay: NCI in vitro cytotoxicity (SRB, 48 h), Breast panel; conditions: Homo sapiens, 48 h exposure
UACC-62 = assay: NCI in vitro cytotoxicity (SRB, 48 h), Melanoma panel; conditions: Homo sapiens; UACC-62, Melanoma; 48 h exposure
UO-31 = assay: NCI in vitro cytotoxicity (SRB, 48 h), Renal panel; conditions: Homo sapiens; UO-31, Renal; 48 h exposure
NCI/ADR-RES = assay: NCI in vitro cytotoxicity (SRB, 48 h), Ovarian panel; conditions: Homo sapiens, 48 h exposure
IGROV1 = assay: as above; conditions: Homo sapiens, IGROV-1; for IC50: IGROV1, Table 4, read-out: Comparative efficacy
EKVX = assay: NCI in vitro cytotoxicity (SRB, 48 h), Non-small cell lung panel; conditions: Homo sapiens, 48 h exposure
SK-OV-3 = assay: NCI in vitro cytotoxicity (SRB, 48 h), Ovarian panel; conditions: Homo sapiens; SK-OV-3, Ovarian; 48 h exposure
MCF7 = assay: NCI in vitro cytotoxicity (SRB, 48 h), Breast panel; conditions: Homo sapiens; for IC50: MCF7, MCF-7, Table 4, read-out: Comparative efficacy; for GI50: MCF7, Breast, 48 h exposure
Description: (§1) The imidazothiazole-chalcone hybrids 7a, 7e, 7f, 8f and 19e have been tested against sixty human tumour cell lines derived from nine cancer types (leukemia, non-small cell lung cancer, colon cancer, CNS cancer, melanoma, ovarian cancer, renal cancer, prostate cancer and breast cancer) as per NCI protocol. For each compound, dose response curves for individual cell lines have been measured at a minimum of five concentrations at 10 fold dilutions. A protocol of 48 h continuous drug exposure has been used, and a sulforhodamine B (SRB) protein assay was used to estimate cell viability or growth. The concentration for 50% cell growth inhibition (GI50), total cell growth inhibition (TGI, 0% growth) and 50% cell death (LC50, […]) compared with the control has been calculated (Table-1).

MDA-MB-231/ATCC = assay: as above; conditions: Homo sapiens; for GI50: Breast, 48 h exposure; for IC50: Table 4, read-out: Comparative efficacy
Description: as §1

HCT-116 = assay: NCI in vitro cytotoxicity (SRB, 48 h), Colon panel; conditions: Homo sapiens; for IC50: HCT-116, HCT116, Table 4, read-out: Comparative efficacy
NCI-H460 = assay: NCI in vitro cytotoxicity (SRB, 48 h), Non-small cell lung panel; conditions: Homo sapiens, 48 h exposure
Renal cancer cell lines = assay: NCI in vitro cytotoxicity, whole panel; conditions: Homo sapiens; for CC50: read-out: Log10 LC50 (converted)
SK-MEL-2 = assay: NCI in vitro cytotoxicity (SRB, 48 h), Melanoma panel; conditions: Homo sapiens; SK-MEL-2, Melanoma; 48 h exposure
SF-539 = assay: NCI in vitro cytotoxicity (SRB, 48 h), CNS panel; conditions: Homo sapiens; SF-539, CNS; 48 h exposure
Breast cancer cell lines = assay: NCI in vitro cytotoxicity, whole panel; conditions: Homo sapiens; for GI50 / CC50: Breast, average of six to eight cell lines; for GI50: read-out: Log10 GI50 (converted); for CC50: read-out: Log10 LC50 (converted); for IC50: exposure period of at least 48 hrs, read-out: IC50, range over breast cell lines
SR = assay: NCI in vitro cytotoxicity (SRB, 48 h), Leukemia panel; conditions: Homo sapiens, 48 h exposure
Description: as §1

HL-60(TB) = assay: as above; conditions: Homo sapiens, 48 h exposure
Description: as §1

[1] = tested on: Prostate cancer cell lines; assay: NCI in vitro cytotoxicity, whole panel; conditions: Homo sapiens; for LC50: read-out: Log10 LC50 (converted)
Leukemia cell lines = assay: NCI in vitro cytotoxicity, whole panel; conditions: Homo sapiens; for CC50: read-out: Log10 LC50 (converted)
MOLT-4 = assay: NCI in vitro cytotoxicity (SRB, 48 h), Leukemia panel; conditions: Homo sapiens; MOLT-4, Leukemia; 48 h exposure
M14 = assay: NCI in vitro cytotoxicity (SRB, 48 h), Melanoma panel; conditions: Homo sapiens, 48 h exposure
Melanoma cell lines = assay: NCI in vitro cytotoxicity, whole panel; conditions: Homo sapiens; for CC50: read-out: Log10 LC50 (converted)
TK-10 = assay: NCI in vitro cytotoxicity (SRB, 48 h), Renal panel; conditions: Homo sapiens; TK-10, Renal; 48 h exposure
SK-MEL-5 = assay: NCI in vitro cytotoxicity (SRB, 48 h), Melanoma panel; conditions: Homo sapiens; SK-MEL-5, Melanoma; 48 h exposure
SNB-19 = assay: NCI in vitro cytotoxicity (SRB, 48 h), CNS panel; conditions: Homo sapiens; SNB-19, CNS; 48 h exposure
COLO 205 = assay: NCI in vitro cytotoxicity (SRB, 48 h), Colon panel; conditions: Homo sapiens; COLO 205, Colon; 48 h exposure
NCI-H23 = assay: NCI in vitro cytotoxicity (SRB, 48 h), Non-small cell lung panel; conditions: Homo sapiens, 48 h exposure
[2] = tested on: sixty human tumour cell lines; assay: NCI in vitro cytotoxicity, all panels; conditions: for CC50: read-out: Log10 LC50 mean graph midpoint (MG_MID) (converted)
786-0 = assay: NCI in vitro cytotoxicity (SRB, 48 h), Renal panel; conditions: Homo sapiens; 786-0, Renal; 48 h exposure
[3] = Renal, average of six to eight cell lines, read-out: Log10 GI50 (converted)
[4] = Renal, average of six to eight cell lines
[5] = exposure period of at least 48 hrs, read-out: GI50, range over renal cell lines
[6] = Prostate cell, exposure period of at least 48 hrs, read-out: GI50, range over prostate cell lines
[7] = Prostate, average of the panel's cell lines, read-out: Log10 GI50 (converted)
[8] = Prostate, average of the panel's cell lines
[9] = Leukemia, average of six to eight cell lines, read-out: Log10 GI50 (converted)
[10] = Leukemia, average of six to eight cell lines
[11] = exposure period of at least 48 hrs, read-out: GI50, range over leukemia cell lines
[12] = Melanoma, average of six to eight cell lines, read-out: Log10 GI50 (converted)
[13] = Melanoma, average of six to eight cell lines
[14] = exposure period of at least 48 hrs, read-out: GI50, range over melanoma cell lines
[15] = Homo sapiens, sixty cell lines, nine panels, read-out: GI50 against sixty cell lines in nine cell panels
[16] = human tumour cell lines, read-out: Log10 GI50 mean graph midpoint (MG_MID) (converted)

Structure (SMILES): COc1ccc(-c2nc3sccn3c2/C=C/C(=O)c2cc(OC)c(OC)c(OC)c2)cc1 [Compound 7a, (E)-3-(6-(4-methoxyphenyl)imidazo[2,1-b]thiazol-5-yl)-1-(3,4,5-trimethoxyphenyl) prop-2-en-1-one]
- GI50 (HS 578T): 1900 nM
- GI50 (UACC-62): 2080 nM
- GI50 (UO-31): 1120 nM
- GI50 (NCI/ADR-RES): 2570 nM
- GI50 (IGROV1; IGROV1, Ovarian, 48 h exposure): 210 nM
- GI50 (IGROV1; IGROV1, ovarian): 210 nM
- IC50 (IGROV1): 210 nM
- GI50 (EKVX): 3120 nM
- GI50 (SK-OV-3): 3280 nM
- IC50 (MCF7): 2020 nM
- GI50 (MCF7): 2020 nM
- GI50 (MDA-MB-231/ATCC): 2550 nM
- IC50 (MDA-MB-231/ATCC): 2550 nM
- IC50 (HCT-116): 1880 nM
- GI50 (HCT-116; HCT-116, Colon, 48 h exposure): 1880 nM
- GI50 (HCT-116; HCT-116, colon): 1880 nM
- GI50 (NCI-H460): 2700 nM
- GI50 (Renal cancer cell lines; [3]): 2510 nM
- CC50 (Renal cancer cell lines; [4]): ≥ 100000 nM
- GI50 (Renal cancer cell lines; [5]): 1120 to 5040 nM
- GI50 (SK-MEL-2): 2420 nM
- GI50 (SF-539): 1660 nM
- GI50 (Breast cancer cell lines): 2510 nM
- CC50 (Breast cancer cell lines): ≥ 100000 nM
- IC50 (Breast cancer cell lines): 1900 to 3460 nM
- GI50 (SR): 2330 nM
- GI50 (HL-60(TB)): 1660 nM
- GI50 [1, 6]: 2620 to 3100 nM
- GI50 [1, 7]: 2880 nM
- LC50 [1, 8]: ≥ 100000 nM
- GI50 (Leukemia cell lines; [9]): 2240 nM
- CC50 (Leukemia cell lines; [10]): ≥ 100000 nM
- GI50 (Leukemia cell lines; [11]): 1660 to 3080 nM
- GI50 (MOLT-4): 2520 nM
- GI50 (M14): 2330 nM
- GI50 (Melanoma cell lines; [12]): 2630 nM
- CC50 (Melanoma cell lines; [13]): 70800 nM
- GI50 (Melanoma cell lines; [14]): 1300 to 5420 nM
- GI50 (TK-10): 5040 nM
- GI50 (SK-MEL-5): 1300 nM
- GI50 (SNB-19): 3540 nM
- GI50 (COLO 205): 2520 nM
- GI50 (NCI-H23): 2180 nM
- GI50 [2, 15]: < 9000 nM
- Log10 TGI mean graph midpoint (MG_MID) ([2]; human tumour cell lines): −4.76
- in vitro cytotoxicity, in words ([2]; human tumour cell lines): significant cytotoxicity
- GI50 [2, 16]: 2340 nM
- CC50 ([2]; human tumour cell lines): 87100 nM
- GI50 (786-0): 2580 nM

Structure (SMILES): COc1cc(C(=O)/C=C/c2c(-c3ccc(F)cc3)nc3sccn23)cc(OC)c1OC [Compound 7e, (E)-3-(6-(4-fluorophenyl)imidazo[2,1-b]thiazol-5-yl)-1-(3,4,5-trimethoxyphenyl)prop-2-en-1-one]
- GI50 (HS 578T): 2050 nM
- GI50 (UACC-62): 1820 nM
- GI50 (UO-31): 2030 nM
- GI50 (NCI/ADR-RES): 2100 nM
- GI50 (IGROV1; IGROV1, Ovarian, 48 h exposure): 1040 nM
- GI50 (IGROV1; IGROV1, ovarian): 1040 nM
- IC50 (IGROV1): 1040 nM
- GI50 (EKVX): 2740 nM
- GI50 (SK-OV-3): 3020 nM
- IC50 (MCF7): 2240 nM
- GI50 (MCF7): 2240 nM
- GI50 (MDA-MB-231/ATCC): 2490 nM
- IC50 (MDA-MB-231/ATCC): 2490 nM
- IC50 (HCT-116): 2330 nM
- GI50 (HCT-116; HCT-116, Colon, 48 h exposure): 2330 nM
- GI50 (NCI-H460): 2300 nM
- GI50 (Renal cancer cell lines; [3]): 1550 nM
- CC50 (Renal cancer cell lines; [4]): 87100 nM
- GI50 (Renal cancer cell lines; [5]): 40 to 5810 nM
- GI50 (SK-MEL-2): 2520 nM
- GI50 (SF-539): 1740 nM
- GI50 (Breast cancer cell lines): 2820 nM
- CC50 (Breast cancer cell lines): ≥ 100000 nM
- IC50 (Breast cancer cell lines): 2050 to 3760 nM
- GI50 (SR): 1730 nM
- GI50 (HL-60(TB)): 1770 nM
- GI50 [1, 6]: 2450 to 3430 nM
- GI50 [1, 7]: 2950 nM
- LC50 [1, 8]: ≥ 100000 nM
- GI50 (Leukemia cell lines; [9]): 1860 nM
- CC50 (Leukemia cell lines; [10]): 70800 nM
- GI50 (Leukemia cell lines; [11]): 1550 to 2230 nM
- GI50 (MOLT-4): 2070 nM
- GI50 (M14): 2750 nM
- GI50 (Melanoma cell lines; [12]): 2630 nM
- CC50 (Melanoma cell lines; [13]): 42700 nM
- GI50 (Melanoma cell lines; [14]): 1820 to 8270 nM
- GI50 (TK-10): 5810 nM
- GI50 (SK-MEL-5): 1450 nM
- GI50 (SNB-19): 3730 nM
- GI50 (COLO 205): 2790 nM
- GI50 (NCI-H23): 2490 nM
- GI50 [2, 15]: < 9000 nM
- Log10 TGI mean graph midpoint (MG_MID) ([2]; human tumour cell lines): −5.02
- in vitro cytotoxicity, in words ([2]; human tumour cell lines): significant cytotoxicity
- GI50 [2, 16]: 2240 nM
- CC50 ([2]; human tumour cell lines): 58900 nM
- GI50 (786-0): 2510 nM
